{"source": "patent US20200289482A1", "about": "“CYSTIC FIBROSIS TRANSMEMBRANE CONDUCTANCE REGULATOR MODULATORS FOR TREATING AUTOSOMAL DOMINANT POLYCYSTIC KIDNEY DISEASE” (The Johns Hopkins University, priority 2017, published 2020)", "type_in_all_cases": "cell-based, mouse", "key": {"AC6": {"test_system": "AC6", "experiment": "Western blot of adenylyl cyclase 6 expression", "details": "PN cells treated with VX-809", "experimental": "FIG. 4A, FIG. 4B, FIG. 4C, FIG. 4D, and FIG. 4E show (FIG. 4A-FIG. 4B) cAMP levels are reduced by VX-809. (FIG. 4A) cAMP levels in mouse tissue were reduced by VX-809. The kidney samples (n=6) analyzed were taken from those depicted in FIG. 1. (FIG. 4B) Confluent PN and PH cells were treated with VX-809 (10 μM) or DMSO for 16 h and then treated with forskolin (100 μM) for 30 min before the cells were harvested for the assay. Columns represent means±SEM. Statistical analysis was performed using a two-tailed Student's t-test. Each set of data is from three individual wells; Note that resting cAMP is greater in PN vs PH cells as previously shown (25). Also note that forskolin caused a large increase in cAMP. A smaller increase occurred with IBMX. However, the increase induced by forskolin alone was similar to that by IBMX plus forskolin. […] (FIG. 4C, FIG. 4D, and FIG. 4E) Adenylyl cyclase expression. (FIG. 4C) Western blot showing the expression of adenylyl cyclase (AC) 6 and AC3 in treated and control PN cells. (FIG. 4D-FIG. 4E) Columns represent means±SEM of the AC3 and AC6 expression. The data were analyzed by non-parametric t-test. The experiment was repeated four times. For all graphs, *P<0.05, **P<0.01, and ***P<0.001;\nThere are two classes of adenylyl cyclases that are regulated by intracellular Ca^2+: one class is activated, and the other inhibited. […]"}, "Hsp27 [1]": {"test_system": "Hsp27", "experiment": "Western blot of Hsp27 in PN cells", "details": "VX-809 10 μM 16 h", "experimental": "FIG. 8A, FIG. 8B, FIG. 8C, FIG. 8D, FIG. 8E, FIG. 8F, FIG. 8G, and FIG. 8H show chaperone expression is altered in PH and PN cells by VX-809. (FIG. 8A) Western blot showing expression of HSP27, 70 and HSP 90 in VX-809 treated or control PN cells. […] (FIG. 8E). Western blot of HSP27, 70 and 90 in PH vs. PN cells. […] Whereas, Hsp70 is higher in PH vs. PN cells. Data were analyzed by non-parametric t test. Experiment was repeated 4-5 times. Cells were grown in 10-cm culture dishes at permissive conditions (33° C.) with γ-interferon in culture media. Cells were then transferred to non-permissive conditions at 37° C., γ-interferon free culture media and evaluated at full confluence. At day four, cells were treated with VX-809 (10 μM) for 16 h and harvested on fifth day for assay. *P<0.05., **P<0.01, ***P<0.001, ****P<0.0001; To facilitate their growth in the kidney, cysts have developed an altered network of proteins that most likely serves to protect them from stress (34). Next, it was determined whether VX-809 would alter the levels of Hsps in pkd−/− mice and in PN cells. […] Hsp 27, 70 and 90 are all elevated in cystic kidneys compared to normal controls. […] There is no change in Hsp 40. […] Both sets of data are consistent with an alteration in the heat shock response to cyst growth."}, "Hsp27 [2]": {"test_system": "Hsp27", "experiment": "Cycloheximide chase, disappearance of Hsp27 in PN cells", "details": "VX-809 10 μM with cycloheximide 25 μM", "experimental": "FIG. 9A, FIG. 9B, FIG. 9C, FIG. 9D, FIG. 9E, FIG. 9F, FIG. 9G, and FIG. 9H show Hsp27, HSp70, and Hsp90 expression in PN cells treated with VX-809 and/or cycloheximide. (A) Pkd1 null (PN) cells were treated with VX-809 (10 μM) and/or with cycloheximide (25 μM) for indicated time points before being harvested for the assay. (FIG. 9A) Western blot showing expression of Hsp27, Hsp70, and Hsp90 in VX-809-(16 h), cycloheximide-treated, or control PN cells. ((FIG. 9B. (FIG. 9C, and (FIG. 9D) Columns represent averages±standard errors of Hsp27, Hsp70, and Hsp90 expression in cells treated with VX-809 and/or cycloheximide. ((FIG. 9E) Western blot showing expression of Hsp27, Hsp70, and Hsp90 in PN cells treated with VX-809+cycloheximide or control PN cells. ((FIG. 9F, (FIG. 9G, and (FIG. 9H) Columns represent averages±standard errors of Hsp27, Hsp70, and Hsp90 expression in cells treated only with cycloheximide or in control PN cells. Data were analyzed by non-parametric t-test. The experiments were repeated 3-5 times. *P<0.05, **P<0.01;\nTo gain more insight into the mechanism whereby VX-809 alters Hsp protein levels, translation was inhibited by using cycloheximide (35) and the disappearance of the three Hsps was monitored. […] Hsp 90 was reduced by approximately 25%, and Hsp27 was unchanged."}, "NHE3": {"test_system": "NHE3", "experiment": "NHE3 expression in PN cells", "details": "PN cells treated with VX-809 vs PN cells", "experimental": "FIG. 14A and FIG. 14B show NHE3 expression in PN cells treated with VX-809.\nThe expression and activity of […] were evaluated. Specifically, NHE3 expression was evaluated in PN cells that were treated with VX-809. […] was also studied in PN, PH, and PN cells treated with VX-809. […] Next, NHE3 activity was evaluated in PN/PH cells or PN cells treated with VX-809. NHE3 activity was increased in PN cells treated with VX-809, as compared to PN cells (FIG. 16A). NHE3 activity was higher in control PH cells than in PN cells (FIG. 16B). […] NHE3 activity was increased in both VX-809 treated PN cells and control PH cells, as compared to control PN cells (FIG. 16C)."}}, "data": [{"substance": "lumacaftor [VX-809]", "values": [{"measurement": "AC6 regulation (expression)", "setting": "AC6", "value": "not AC6"}, {"measurement": "Hsp27 expression in PN cells", "setting": "Hsp27 [1]", "value": "reduced expression"}, {"measurement": "Hsp27 level over the 8-h period", "setting": "Hsp27 [2]", "value": "unchanged"}, {"measurement": "NHE3 expression", "setting": "NHE3", "value": "significantly increased"}]}]}
